Results from patent US8252748B2, “Peptide derived from neurotensin receptor 3 and use thereof in the treatment of psychiatric diseases” (Centre National de la Recherche Scientifique—CNRS, priority 2007, dated 2012).
No end group written: not given here.

How the values were obtained:
[1] = tested on: C57BL6/J mice; test: Focal ischemia (middle cerebral artery occlusion), infarct size; assay type: in vivo, mouse; conditions: daily IP 100 μl at 10^−5 M for a week, vs physiological saline
Protocol: The model used for inducing a CVA is that of focal ischemia, which consists of occlusion of the middle cerebral artery with a thread (Heurteaux C., Laigle, C., Blondeau, N., Jarretou, G., Lazdunski, M. “Alpha-linolenic acid and riluzole treatment confer cerebral protection and improve survival after focal brain ischemia” Neuroscience, 137: 241-251 (2006) (27). The size of the infarcts caused by this focal ischemia was measured after staining brain sections with cresyl violet. The infarct is measured by tracing the contour of the infarct zone by an image analysis system (Olympus DP Soft) according to the method described in Heurteaux et al., 2006 (27). The brains of C57BL6/J mice (at the rate of 10 mice per experimental group) are treated for a week with a daily intraperitoneal injection of 100 μl of a solution containing either the peptide of sequence ID No. 2 at a concentration of 10^−5M (“PE 10^−5M” group), or with a solution of physiological saline solution (“PHYS SALINE” group). The values were compared between the two groups.
(§1) The difference was evaluated using the Student t test.

[2] = tested on: C57BL6/J mice; test: Intake of food and drinking water after long-term treatment; assay type: in vivo, mouse; conditions: daily IP 100 μl at 10^−5 M for 15 days; 6 and 72 hours after end of treatment
Protocol: The intake of food and of drinking water was also measured. Two experimental groups of C57BL6/J mice (n=10 per group) were used: the first group received an intraperitoneal injection daily for 15 days of 100 μl of physiological saline solution (“PHYS SALINE”), the second group received an intraperitoneal injection daily for 15 days of 100 μl of a solution containing the peptide of sequence ID No. 2 at a concentration of 10^−5M (“PE 10^−5 M”).
These measurements were taken 6 and 72 hours after the end of long-term treatment.
as §1

[3] = tested on: C57BL6/J mice; test: Kainate-induced epileptic seizures; assay type: in vivo, mouse; conditions: IP 100 μl at 10^−5 M; kainate 30 mg/kg IP; 90 minutes after kainate; 10 mice per group (5 in saline group)
Protocol: In this experiment, the mice used were C57BL6/J, […], which received an intraperitoneal injection of 100 μl of physiological saline solution and a “PE 10^−5 M” group, in which the mice received an intraperitoneal injection of 100 μl of a solution containing the peptide of the invention at a concentration of 10^−5M. In each of the experimental groups, epileptic seizures were induced by intraperitoneal injection of 100 μl of kainate at a rate of 30 mg/kg. Observation of the stage of epileptic seizure was carried out 90 minutes after injection of kainate. This was based on observation of the behavior of the mice.
The different stages of epileptic seizure are presented in the document of Tsirka S. E., Gualandris, A., Amaral, D. G., Strickland, S. “Excitotoxin-induced neuronal degeneration and seizure are mediated by tissue plasminogen activator”, Nature, 377: 340-344 (1995) (26).
6 stages are defined for describing the intensity of an epileptic attack: • Stage 1: immobility • Stage 2: movements of the head and of the nape • Stage 3: unilateral clonic activity • Stage 4: bilateral clonic activity • Stage 5: generalized convulsions • Stage 6: death of the animal
Statistical analysis was performed by a two-factor ANOVA test followed by the post-hoc test.

[4] = tested on: mouse (C57Black/J); test: Forced swimming test (FST); assay type: in vivo
Excerpt: The inventors conducted three types of behavioral experiments that are regarded as classical for determining the antidepressant activity of a substance (Nestler E. J., Gould E., Manji H., Buncan M., Duman R. S., Greshenfeld H. K., Hen, R. et al. “Preclinical models: status of basic research in depression” Biol Psychiatry. 15, 503-528 (2002) (20) and Cryan, J. & Holmes, A. “The ascent of mouse: advances in modeling human depression and anxiety” Nat Rev Drug Discov. 4, 775-790 (2005) (21)). The effects of the propeptide of the present invention were compared with those of the saline solution in which it is dissolved and with those of fluoxetine, one of the most-used antidepressants in clinical practice. The mouse strain used is C57Black/J strain. TREK-1^−/− mice were also measured in these various tests.
The propeptide is dissolved in 0.9% NaCl saline solution to the desired concentrations: 10^−5 M, 10^−6 M, 10^−7 M and […]. Different volumes are injected depending on the technique used: • intracerebroventricular: 5 μl • intravenous: 100 μl • intraperitoneal: 100 μl
For the ICV injections, a Hamilton syringe (Fisher Bioblock) (trademark) of 10 μl is used, and in the case of IV or IP injections, a needle of 0.45×12 mm is used.
A. Forced Swimming Test (FST) (Cryan & Holmes, 2005 (21)) […]

With “APLPRWSGPIGVSWGLR [propeptide, APLPRWSGPIGVSWGLR]” the “size of the infarct caused by focal ischemia” value [1] was “does not have a significant effect”, the food intake [2] was “does not have a significant effect” and the “intake of drinking water” value [2] was “no significant difference”. For the same sequence, the “number of animals that reached stage 5 (generalized convulsions)” value [3] was 2 animals, the “effect on immobility time” value ([4]; ICV, IV or IP injection, 30 min after injection) was “comparable to those produced by fluoxetine” and the “crossing of the blood-brain barrier (BBB)” value ([4]; inferred from activity by intravenous or intraperitoneal as well as central route) was “easily crosses the blood-brain barrier”.
